Data from PubChem BioAssay (NCI).
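Step 1: Grow cells in 96-well plates. Step 2: Expose to compound for 48 hours at 5 concentrations. Step 3: Interpolate endpoints linearly; if unreached, use highest concentration. TGI: total growth inhibition.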

Assays:
Assay in all cases: DTP human tumour cell line panel, 48 h
786-0 renal = test system: 786-0 renal
A498 renal = test system: A498 renal
A549 NSCLC = test system: A549 NSCLC
ACHN renal = test system: ACHN renal
BT-549 breast = test system: BT-549 breast
CAKI-1 renal = test system: CAKI-1 renal
CCRF-CEM leukemia = test system: CCRF-CEM leukemia
COLO 205 colon = test system: COLO 205 colon
DU-145 prostate = test system: DU-145 prostate
EKVX NSCLC = test system: EKVX NSCLC
HCC-2998 colon = test system: HCC-2998 colon
HCT-116 colon = test system: HCT-116 colon
HCT-15 colon = test system: HCT-15 colon
HL-60(TB) leukemia = test system: HL-60(TB) leukemia
HOP-62 NSCLC = test system: HOP-62 NSCLC
HOP-92 NSCLC = test system: HOP-92 NSCLC
HS 578T breast = test system: HS 578T breast
HT29 colon = test system: HT29 colon
IGROV1 ovarian = test system: IGROV1 ovarian
K-562 leukemia = test system: K-562 leukemia
KM12 colon = test system: KM12 colon
LOX IMVI melanoma = test system: LOX IMVI melanoma
M14 melanoma = test system: M14 melanoma
MALME-3M melanoma = test system: MALME-3M melanoma
MCF7 breast = test system: MCF7 breast
MDA-MB-231 breast = test system: MDA-MB-231 breast
MDA-MB-435 = test system: MDA-MB-435
MDA-N = test system: MDA-N
MOLT-4 leukemia = test system: MOLT-4 leukemia
NCI-H226 lung = test system: NCI-H226 lung
NCI-H23 lung = test system: NCI-H23 lung
NCI-H460 lung = test system: NCI-H460 lung
NCI-H522 lung = test system: NCI-H522 lung
NCI/ADR-RES ovarian = test system: NCI/ADR-RES ovarian
OVCAR-3 ovarian = test system: OVCAR-3 ovarian
OVCAR-4 ovarian = test system: OVCAR-4 ovarian
OVCAR-5 ovarian = test system: OVCAR-5 ovarian
OVCAR-8 ovarian = test system: OVCAR-8 ovarian
PC-3 prostate = test system: PC-3 prostate
RPMI-8226 leukemia = test system: RPMI-8226 leukemia
RXF 393 renal = test system: RXF 393 renal
SF-268 CNS = test system: SF-268 CNS
SF-295 CNS = test system: SF-295 CNS
SF-539 CNS = test system: SF-539 CNS
SK-MEL-2 melanoma = test system: SK-MEL-2 melanoma
SK-MEL-28 melanoma = test system: SK-MEL-28 melanoma
SK-MEL-5 melanoma = test system: SK-MEL-5 melanoma
SK-OV-3 ovarian = test system: SK-OV-3 ovarian
SN12C renal = test system: SN12C renal
SNB-19 CNS = test system: SNB-19 CNS
SNB-75 CNS = test system: SNB-75 CNS
SR leukemia = test system: SR leukemia
SW-620 colon = test system: SW-620 colon
T-47D breast = test system: T-47D breast
TK-10 renal = test system: TK-10 renal
U251 CNS = test system: U251 CNS
UACC-257 melanoma = test system: UACC-257 melanoma
UACC-62 melanoma = test system: UACC-62 melanoma
UO-31 renal = test system: UO-31 renal

SMILES: Clc1ccc(C2ON=C(c3ccccc3)N2C23CC4CC(CC(C4)C2)C3)cc1 (stereo not drawn)
- TGI (786-0 renal): > 10 µM
- TGI (A498 renal): > 10 µM
- TGI (A549 NSCLC): > 10 µM
- TGI (ACHN renal): > 10 µM
- TGI (BT-549 breast): > 10 µM
- TGI (CAKI-1 renal): > 10 µM
- TGI (CCRF-CEM leukemia): > 10 µM
- TGI (COLO 205 colon): > 10 µM
- TGI (DU-145 prostate): > 10 µM
- TGI (EKVX NSCLC): > 10 µM
- TGI (HCC-2998 colon): > 10 µM
- TGI (HCT-116 colon): > 10 µM
- TGI (HCT-15 colon): > 10 µM
- TGI (HL-60(TB) leukemia): > 10 µM
- TGI (HOP-62 NSCLC): > 10 µM
- TGI (HOP-92 NSCLC): > 10 µM
- TGI (HS 578T breast): > 10 µM
- TGI (HT29 colon): > 10 µM
- TGI (IGROV1 ovarian): > 10 µM
- TGI (K-562 leukemia): > 10 µM
- TGI (KM12 colon): > 10 µM
- TGI (LOX IMVI melanoma): > 10 µM
- TGI (M14 melanoma): > 10 µM
- TGI (MALME-3M melanoma): > 10 µM
- TGI (MCF7 breast): > 10 µM
- TGI (MDA-MB-231 breast): > 10 µM
- TGI (MDA-MB-435): > 10 µM
- TGI (MDA-N): > 10 µM
- TGI (MOLT-4 leukemia): > 10 µM
- TGI (NCI-H226 lung): > 10 µM
- TGI (NCI-H23 lung): > 10 µM
- TGI (NCI-H460 lung): > 10 µM
- TGI (NCI-H522 lung): > 10 µM
- TGI (NCI/ADR-RES ovarian): > 10 µM
- TGI (OVCAR-3 ovarian): > 10 µM
- TGI (OVCAR-4 ovarian): > 10 µM
- TGI (OVCAR-5 ovarian): > 10 µM
- TGI (OVCAR-8 ovarian): > 10 µM
- TGI (PC-3 prostate): > 10 µM
- TGI (RPMI-8226 leukemia): > 10 µM
- TGI (RXF 393 renal): > 10 µM
- TGI (SF-268 CNS): > 10 µM
- TGI (SF-295 CNS): > 10 µM
- TGI (SF-539 CNS): > 10 µM
- TGI (SK-MEL-2 melanoma): > 10 µM
- TGI (SK-MEL-28 melanoma): > 10 µM
- TGI (SK-MEL-5 melanoma): > 10 µM
- TGI (SK-OV-3 ovarian): > 10 µM
- TGI (SN12C renal): > 10 µM
- TGI (SNB-19 CNS): > 10 µM
- TGI (SNB-75 CNS): > 10 µM
- TGI (SR leukemia): > 10 µM
- TGI (SW-620 colon): > 10 µM
- TGI (T-47D breast): > 10 µM
- TGI (TK-10 renal): > 10 µM
- TGI (U251 CNS): > 10 µM
- TGI (UACC-257 melanoma): > 10 µM
- TGI (UACC-62 melanoma): > 10 µM

SMILES: COc1cc(Nc2nc3cc(C(F)(F)F)ccc3n3cccc23)cc(OC)c1OC
- TGI (A498 renal): > 100 µM
- TGI (A549 NSCLC): > 100 µM
- TGI (ACHN renal): > 100 µM
- TGI (BT-549 breast): > 100 µM
- TGI (CAKI-1 renal): > 100 µM
- TGI (CCRF-CEM leukemia): > 100 µM
- TGI (COLO 205 colon): > 100 µM
- TGI (DU-145 prostate): > 100 µM
- TGI (EKVX NSCLC): > 100 µM
- TGI (HCC-2998 colon): > 100 µM
- TGI (HCT-116 colon): > 100 µM
- TGI (HCT-15 colon): > 100 µM
- TGI (HL-60(TB) leukemia): > 100 µM
- TGI (HOP-62 NSCLC): > 100 µM
- TGI (HOP-92 NSCLC): > 100 µM
- TGI (HS 578T breast): > 100 µM
- TGI (IGROV1 ovarian): > 100 µM
- TGI (K-562 leukemia): > 100 µM
- TGI (M14 melanoma): > 100 µM
- TGI (MALME-3M melanoma): > 100 µM
- TGI (MCF7 breast): > 100 µM
- TGI (MDA-MB-435): > 100 µM
- TGI (MDA-N): > 100 µM
- TGI (MOLT-4 leukemia): > 100 µM
- TGI (NCI-H23 lung): > 100 µM
- TGI (NCI-H522 lung): > 100 µM
- TGI (NCI/ADR-RES ovarian): > 100 µM
- TGI (OVCAR-3 ovarian): > 100 µM
- TGI (OVCAR-5 ovarian): > 100 µM
- TGI (OVCAR-8 ovarian): > 100 µM
- TGI (PC-3 prostate): > 100 µM
- TGI (RPMI-8226 leukemia): > 100 µM
- TGI (RXF 393 renal): > 100 µM
- TGI (SF-268 CNS): > 100 µM
- TGI (SF-295 CNS): > 100 µM
- TGI (SF-539 CNS): > 100 µM
- TGI (SK-MEL-2 melanoma): > 100 µM
- TGI (SK-MEL-28 melanoma): > 100 µM
- TGI (SK-MEL-5 melanoma): > 100 µM
- TGI (SK-OV-3 ovarian): > 100 µM
- TGI (SN12C renal): > 100 µM
- TGI (SNB-19 CNS): > 100 µM
- TGI (SNB-75 CNS): > 100 µM
- TGI (SW-620 colon): > 100 µM
- TGI (T-47D breast): 9.91 µM
- TGI (TK-10 renal): > 100 µM
- TGI (U251 CNS): > 100 µM
- TGI (UACC-257 melanoma): > 100 µM
- TGI (UACC-62 melanoma): > 100 µM
- TGI (UO-31 renal): > 100 µM
